From the NIST ThermoML archive (doi:10.1021/je100552a)
Numbers after ± are expanded uncertainties.

Tests used:
[1] = refractive index (Na D-line) (dimensionless); xn = mol fraction of the nth substance listed; details: 101 kPa, Liquid, Standard Abbe refractometry
[2] = xn = mol fraction of the nth substance listed; details: 101 kPa, Liquid; for viscosity: Capillary tube (Ostwald / Ubbelohde) method; for mass density: Vibrating tube method

Brc1ccccc1 [bromobenzene] + ClCCCl
Details | mass density, [2] [kg/m3] | refractive index, [1] | viscosity, [2] [mPa·s]
298.15 K, x2 = 0.1014 | 1469.57 ± 0.64 | 1.5479 ± 0.0005 | 1.041 ± 0.0082
298.15 K, x2 = 0.2002 | 1449.41 ± 0.62 | 1.5398 ± 0.0005 | 1.004 ± 0.008
298.15 K, x2 = 0.3004 | 1428.09 ± 0.6 | 1.5313 ± 0.0005 | 0.9677 ± 0.0077
298.15 K, x2 = 0.3999 | 1406.01 ± 0.58 | 1.5218 ± 0.0005 | 0.9348 ± 0.0075
298.15 K, x2 = 0.5008 | 1382.5 ± 0.56 | 1.5107 ± 0.0005 | 0.9036 ± 0.0072
298.15 K, x2 = 0.6001 | 1358.18 ± 0.54 | 1.4984 ± 0.0005 | 0.8752 ± 0.007
298.15 K, x2 = 0.6999 | 1332.44 ± 0.52 | 1.4847 ± 0.0005 | 0.8496 ± 0.0068
298.15 K, x2 = 0.7995 | 1305.43 ± 0.49 | 1.4704 ± 0.0005 | 0.8268 ± 0.0067
298.15 K, x2 = 0.8998 | 1276.72 ± 0.47 | 1.4559 ± 0.0005 | 0.8058 ± 0.0065
303.15 K, x2 = 0.1014 | 1461.55 ± 0.64 | 1.5439 ± 0.0005 | 0.9749 ± 0.0078
303.15 K, x2 = 0.2002 | 1441.65 ± 0.62 | 1.5355 ± 0.0005 | 0.9388 ± 0.0075
303.15 K, x2 = 0.3004 | 1420.51 ± 0.6 | 1.5266 ± 0.0005 | 0.904 ± 0.0072
303.15 K, x2 = 0.3999 | 1398.59 ± 0.58 | 1.517 ± 0.0005 | 0.8714 ± 0.007
303.15 K, x2 = 0.5008 | 1375.26 ± 0.55 | 1.506 ± 0.0005 | 0.8409 ± 0.0068
303.15 K, x2 = 0.6001 | 1351.21 ± 0.53 | 1.494 ± 0.0005 | 0.8141 ± 0.0066
303.15 K, x2 = 0.6999 | 1325.77 ± 0.51 | 1.4808 ± 0.0005 | 0.7886 ± 0.0064
303.15 K, x2 = 0.7995 | 1299.12 ± 0.49 | 1.4671 ± 0.0005 | 0.7646 ± 0.0062
303.15 K, x2 = 0.8998 | 1270.73 ± 0.46 | 1.4528 ± 0.0005 | 0.7445 ± 0.0061
308.15 K, x2 = 0.1014 | 1455.77 ± 0.63 | 1.5412 ± 0.0005 | 0.9162 ± 0.0073
308.15 K, x2 = 0.2002 | 1435.38 ± 0.61 | 1.5321 ± 0.0005 | 0.8809 ± 0.0071
308.15 K, x2 = 0.3004 | 1413.75 ± 0.59 | 1.5227 ± 0.0005 | 0.8474 ± 0.0068
308.15 K, x2 = 0.3999 | 1391.37 ± 0.57 | 1.5128 ± 0.0005 | 0.815 ± 0.0066
308.15 K, x2 = 0.5008 | 1367.54 ± 0.55 | 1.5015 ± 0.0005 | 0.7839 ± 0.0064
308.15 K, x2 = 0.6001 | 1342.97 ± 0.52 | 1.4893 ± 0.0005 | 0.7583 ± 0.0062
308.15 K, x2 = 0.6999 | 1317.02 ± 0.5 | 1.4761 ± 0.0005 | 0.7321 ± 0.006
308.15 K, x2 = 0.7995 | 1289.84 ± 0.48 | 1.4622 ± 0.0005 | 0.711 ± 0.0058
308.15 K, x2 = 0.8998 | 1260.96 ± 0.45 | 1.4479 ± 0.0005 | 0.6904 ± 0.0057
313.15 K, x2 = 0.1014 | 1447.63 ± 0.62 | 1.5372 ± 0.0005 | 0.8463 ± 0.0068
313.15 K, x2 = 0.2002 | 1427.53 ± 0.6 | 1.5279 ± 0.0005 | 0.8155 ± 0.0066
313.15 K, x2 = 0.3004 | 1406.26 ± 0.58 | 1.5182 ± 0.0005 | 0.787 ± 0.0064
313.15 K, x2 = 0.3999 | 1384.19 ± 0.56 | 1.5079 ± 0.0005 | 0.7607 ± 0.0062
313.15 K, x2 = 0.5008 | 1360.71 ± 0.54 | 1.4967 ± 0.0005 | 0.7355 ± 0.006
313.15 K, x2 = 0.6001 | 1336.5 ± 0.52 | 1.4849 ± 0.0005 | 0.712 ± 0.0058
313.15 K, x2 = 0.6999 | 1310.92 ± 0.5 | 1.4722 ± 0.0005 | 0.6917 ± 0.0057
313.15 K, x2 = 0.7995 | 1284.14 ± 0.47 | 1.459 ± 0.0005 | 0.6728 ± 0.0055
313.15 K, x2 = 0.8998 | 1255.65 ± 0.45 | 1.4452 ± 0.0005 | 0.6569 ± 0.0054
